From PubChem BioAssay (NCI)
Values joined by “and” are separate entries in the source; they are usually repeats but may differ in a detail not shown here. Identical values can stand only once.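 Compound exposure: 48 hours, 5 concentrations, 96-well plates. GI50 marks 50% less growth. Definition used: TGI = concentration required for complete inhibition of growth.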

Legend:
Experiment in all cases: inhibition of tumour cell growth, NCI panel, 48 h
K-562 leukemia = system: K-562 leukemia
A498 renal = system: A498 renal
UACC-62 melanoma = system: UACC-62 melanoma
MALME-3M melanoma = system: MALME-3M melanoma
RPMI-8226 leukemia = system: RPMI-8226 leukemia
NCI-H460 lung = system: NCI-H460 lung
MDA-MB-435 = system: MDA-MB-435
SF-268 CNS = system: SF-268 CNS
T-47D breast = system: T-47D breast
A549 NSCLC = system: A549 NSCLC

SMILES	GI50 (K-562 leukemia) [µM]	TGI (K-562 leukemia) [µM]	GI50 (A498 renal) [µM]	TGI (A498 renal) [µM]	GI50 (UACC-62 melanoma) [µM]	TGI (UACC-62 melanoma) [µM]	GI50 (MALME-3M melanoma) [µM]	TGI (MALME-3M melanoma) [µM]	GI50 (RPMI-8226 leukemia) [nM]	TGI (RPMI-8226 leukemia) [µM]	GI50 (NCI-H460 lung) [µM]	TGI (NCI-H460 lung) [µM]	GI50 (MDA-MB-435) [µM]	TGI (MDA-MB-435) [µM]	GI50 (SF-268 CNS) [µM]	TGI (SF-268 CNS)	GI50 (T-47D breast) [µM]	TGI (T-47D breast) [µM]	GI50 (A549 NSCLC) [µM]	TGI (A549 NSCLC) [µM]
C=C1C(O)C2CC(C)(C)C(=O)C2=C(CC(C)C)C12CC2 (configuration not stated)	> 100	> 100	> 100	> 100	> 100	> 100	> 100	> 100	36000	> 100	> 100	> 100	> 100	> 100	> 100	> 100 µM	> 100	> 100	> 100	> 100
CCC(C)C(=O)OC1CCC=C2C=CC(C)C(CCC3CC(O)CC(=O)O3)C21 (configuration not stated)	–	> 100	–	> 66	–	> 100	–	> 100	–	> 100	–	> 100	–	> 100	–	> 100 µM	–	> 100	–	> 100
C(=C\c1ccc(OCC2CO2)cc1)/C1=NCOC1 (configuration not stated)	4.23	> 100	21.9	43.2	12.2	26.5	19.9	58.7	13100	37.2	19.9	57.7	11	37.3	7.3	33.8 µM	3.57	18.6	7.51	39.1
NC(=O)c1ncn2c(=O)n(CCCl)nnc12	–	642	–	375	44.9	137	–	346	–	1250	–	221	–	388	10.7	> 45 µM and 709 µM	–	941	–	628
O=C(CC1Sc2ccccc2NC1=O)NNc1ccc(F)cc1 (configuration not stated)	4.67	> 100	83.5	> 100	6.94	> 100	> 100	> 100	52000	> 100	30.8	> 100	4.34	> 100	81	> 100 µM	14.6	> 100	74	> 100
COc1ccc2c(c1)C(=O)c1c-2n(CCCCl)c(=O)c2cc(N)ccc12	> 48.7	> 100	> 100	> 100	> 100	> 100	> 100	> 100	> 100000	> 100	> 100	> 100	> 100	> 100	> 75.4	> 100 µM	> 100	> 100	> 100	> 100
NS(=O)(=O)c1cc(C(=O)O)c(Cl)c([N+](=O)[O-])c1Cl	–	> 100	–	> 100	–	> 100	–	> 100	–	> 100	–	> 100	–	> 100	–	> 100 µM	–	> 100	–	> 100
CN(C)C/C=C/C(=O)Nc1cc2c(Nc3cccc(Cl)c3F)ncnc2cc1OCCOC(F)F	0.939	11.6	0.423	2.22	1.86	11.1	1.64	6.47	1530	5.27	2.82	13.5	2.22	11.2	1.44	9.76 µM	0.0376	1.11	1.24	12.7
NCCCNc1nc2ccccc2c2c(=O)c3cc(F)cc(Cl)c3sc12	1.78	4.1	2.11	7.04	1.82	3.52	1.68	3.32	2130	5.03	1.64	3.11	1.66	3.04	1.61	3.29 µM	1.4	4.23	1.8	3.55
COC(=O)[C@H](CCCCNC(=O)OCc1ccccc1)NC(=O)[C@@H](NC(=O)Nc1cc(C(F)(F)F)cc(C(F)(F)F)c1)C(C)C	> 10	> 10	> 10	> 10	> 10	> 10	> 10	> 10	> 10000	> 10	> 10	> 10	> 10	> 10	> 10	> 10 µM	> 10	> 10	> 10	> 10
COc1ccc(NC(=O)c2cccc(C3CCc4c(cc(OC)c(OC)c4OC)O3)c2)cc1 (configuration not stated)	0.654	> 100	1.37	5.7	2.05	> 100	2.69	> 100	1360	7.93	3.33	> 100	0.528	9.92	5.13	> 100 µM	2.49	7.48	3.57	> 100
CCC(=C(c1ccc(OCCN2CCCC2)cc1)c1ccc(OCCN2CCCC2)cc1)c1ccc(Cl)cc1	0.226	0.751	1.28	2.82	0.61	1.16	0.564	1.07	674	1.53	0.624	1.18	0.552	1.03	0.612	1.25 µM	0.498	1.21	0.594	1.21
O=C(COc1cccc(/C=C2\Oc3ccc4ccccc4c3C2=O)c1)c1ccc([N+](=O)[O-])cc1	12.4	39.4	> 100	> 100	14.1	30.4	14.7	43	1120	13.3	37	> 100	28.9	> 100	13.3	27.2 µM	12.6	38.3	> 100	> 100
